The target in one experiment is USP12 (Homo sapiens, UniProt O75317). Description: Ubiquigent DUBprofiler biochemical panel, […] inhibition at […].
Another experiment deals with USP46 (Homo sapiens, UniProt P62068). Described as above.
Sequence of USP46 (P62068 whole entry): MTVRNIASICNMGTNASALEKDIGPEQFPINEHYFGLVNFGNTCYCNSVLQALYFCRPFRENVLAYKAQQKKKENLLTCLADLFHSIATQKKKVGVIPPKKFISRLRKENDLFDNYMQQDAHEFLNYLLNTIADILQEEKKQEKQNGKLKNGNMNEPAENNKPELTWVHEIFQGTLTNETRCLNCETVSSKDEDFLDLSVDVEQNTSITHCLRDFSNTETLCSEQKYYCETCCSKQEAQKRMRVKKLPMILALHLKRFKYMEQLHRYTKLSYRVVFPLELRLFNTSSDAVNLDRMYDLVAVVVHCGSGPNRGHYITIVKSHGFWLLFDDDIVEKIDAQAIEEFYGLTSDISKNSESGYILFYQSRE
Sequence of USP46 (Q8TAF3 whole entry partner): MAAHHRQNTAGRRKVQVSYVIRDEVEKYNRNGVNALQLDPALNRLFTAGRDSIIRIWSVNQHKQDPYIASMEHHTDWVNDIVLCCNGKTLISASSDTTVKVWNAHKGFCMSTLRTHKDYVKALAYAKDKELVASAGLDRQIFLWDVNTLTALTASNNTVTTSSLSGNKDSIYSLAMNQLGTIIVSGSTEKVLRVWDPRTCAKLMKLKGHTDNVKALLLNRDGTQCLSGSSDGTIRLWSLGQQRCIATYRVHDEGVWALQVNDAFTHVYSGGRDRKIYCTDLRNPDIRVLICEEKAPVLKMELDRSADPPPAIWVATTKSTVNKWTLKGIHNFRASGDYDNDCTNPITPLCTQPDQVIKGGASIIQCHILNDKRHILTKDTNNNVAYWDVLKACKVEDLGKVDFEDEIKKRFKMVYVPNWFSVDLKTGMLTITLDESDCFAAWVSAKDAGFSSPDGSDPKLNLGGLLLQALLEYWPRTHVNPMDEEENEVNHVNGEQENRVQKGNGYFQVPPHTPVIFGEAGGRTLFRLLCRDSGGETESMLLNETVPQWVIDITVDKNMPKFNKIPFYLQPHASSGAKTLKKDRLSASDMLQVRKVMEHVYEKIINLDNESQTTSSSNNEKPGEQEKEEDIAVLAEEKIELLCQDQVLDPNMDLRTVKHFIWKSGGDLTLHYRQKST

Sequence of USP12 (O75317 whole entry): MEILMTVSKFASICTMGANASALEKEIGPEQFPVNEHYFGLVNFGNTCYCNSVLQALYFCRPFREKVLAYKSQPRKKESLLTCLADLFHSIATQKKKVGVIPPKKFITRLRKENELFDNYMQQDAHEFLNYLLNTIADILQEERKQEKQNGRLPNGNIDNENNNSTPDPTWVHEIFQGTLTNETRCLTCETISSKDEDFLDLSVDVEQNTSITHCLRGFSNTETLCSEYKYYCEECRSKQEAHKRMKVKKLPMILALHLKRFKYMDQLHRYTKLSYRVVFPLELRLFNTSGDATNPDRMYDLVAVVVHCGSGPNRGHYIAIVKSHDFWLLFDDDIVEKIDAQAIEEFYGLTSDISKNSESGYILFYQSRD
Sequence of USP12 (Q8TAF3 whole entry partner): as the sequence (Q8TAF3 whole entry partner) above

`CC(C)c1ccccc1-c1ncc2[nH]c(=O)n(Cc3ccc(-c4nc(C(F)(F)F)cn4C)cc3)c2n1` [I-138, 2-(2-isopropylphenyl)-9-(4-(1-methyl-4-(trifluoromethyl)-1H-imidazol-2-yl)benzyl)-7,9-dihydro-8H-purin-8-one]: the IC50 on USP12 and at USP46 was ~ 10 μmol/L throughout.

The record behind these values is publication PMC9891357 (Molecular Cancer Therapeutics, 2022).
